Consider eleven molecules from PubChem BioAssay (NCI).

Molecules are shown by their SMILES.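 96-well plates; 48 h exposure; 5 concentrations. Endpoints by linear interpolation between flanking doses. Not reached: highest tested concentration assigned. GI50 is the concentration that inhibits growth by half. TGI: concentration producing complete growth inhibition.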

The GI50 is the concentration that inhibits growth by half. As a reminder, the TGI is the concentration giving total growth inhibition. Read a high TGI as less potent growth arrest.

Among the test systems are K-562 leukemia; HT29 colon; SK-MEL-5 melanoma; OVCAR-8 ovarian; MALME-3M melanoma; HCC-2998 colon; UACC-62 melanoma; T-47D breast; MCF7 breast; HCT-116 colon.
Common to all, as to assay: DTP human tumour cell line panel, 48 h

In the case of `N#C/C(=C/C=C/c1ccccc1)S(=O)c1ccccc1` (configuration not stated), the GI50 in the experiment with K-562 leukemia is 0.32 µM; with HT29 colon it was 0.366 µM; with SK-MEL-5 melanoma, 1.65 µM; in the experiment on OVCAR-8 ovarian, 0.338 µM; in the experiment on MALME-3M melanoma, 0.796 µM; with HCC-2998 colon it was 0.342 µM. Also, the figures for the GI50 with UACC-62 melanoma and in the experiment on T-47D breast were 0.435 µM and 0.298 µM, respectively. Besides, the total growth inhibition concentration (TGI) in the experiment with K-562 leukemia was 90.8 µM; with HT29 colon, 2.17 µM; in the experiment with SK-MEL-5 melanoma it was 3.05 µM; in the experiment with OVCAR-8 ovarian, 1.73 µM; in the experiment on MALME-3M melanoma, 2.5 µM; in the experiment with HCC-2998 colon, 1.18 µM. Also, the TGI came to 1.89 µM in the experiment with UACC-62 melanoma and 5.62 µM with T-47D breast.
Consider `CC1(C)CCC2(C(=O)O)CC[C@]3(C)C(=CCC4C5(C)CC[C@H](OC6OC(C(=O)O)C(O)C(OC7OC(CO)C(O)C(O)C7O)C6OC6OC(CO)C(O)C(O)C6O)C(C)(C)C5CCC43C)C2C1` (some centres not stated), for which the GI50 in the experiment with K-562 leukemia is 81.1 µM; with HT29 colon, 40.9 µM; with SK-MEL-5 melanoma it was above 100 µM; in the experiment with OVCAR-8 ovarian, above 100 µM; in the experiment with MCF7 breast, 53.5 µM; with UACC-62 melanoma, 23 µM. The GI50 in the experiment on HCT-116 colon and in the experiment on T-47D breast was above 100 µM each time. Also, the TGI was above 100 µM in the experiment with K-562 leukemia; above 100 µM in the experiment with HT29 colon; above 100 µM in the experiment on SK-MEL-5 melanoma; above 100 µM in the experiment on OVCAR-8 ovarian; above 100 µM with MCF7 breast; 50.7 µM in the experiment on UACC-62 melanoma. Also, the total growth inhibition concentration (TGI) in the experiment with HCT-116 colon and in the experiment with T-47D breast was above 100 µM throughout.
For `CC1=C(C(=O)NCC(C)O)CC(C(=O)NCC(C)O)=C(C)N1` (configuration not stated), the TGI with K-562 leukemia, in the experiment on HT29 colon, in the experiment with SK-MEL-5 melanoma, in the experiment on OVCAR-8 ovarian, in the experiment with HCC-2998 colon and with MCF7 breast was above 100 µM each time. For the same molecule, the TGI in the experiment with UACC-62 melanoma, in the experiment on HCT-116 colon and with T-47D breast was above 100 µM throughout.
Regarding `O=S(=O)(NCCCNc1cc(-c2cn(-c3ccccc3)nc2-c2cccc(O)c2)ccn1)c1cccc2ccccc12`, the GI50 in the experiment on K-562 leukemia is 0.614 µM; in the experiment on HT29 colon, 0.508 µM; in the experiment with SK-MEL-5 melanoma, 1.57 µM; in the experiment with OVCAR-8 ovarian, 5.46 µM; in the experiment on HCC-2998 colon, 1.75 µM; with MCF7 breast, 1.96 µM. For the same molecule, the GI50 is 2.34 µM in the experiment with UACC-62 melanoma, 2.8 µM with HCT-116 colon and 2.14 µM with T-47D breast. Further, the TGI in the experiment on K-562 leukemia was 4.48 µM; in the experiment with HT29 colon, 1.71 µM; in the experiment with SK-MEL-5 melanoma, 3.41 µM; in the experiment with OVCAR-8 ovarian, above 100 µM; in the experiment on HCC-2998 colon, 3.45 µM; in the experiment on MCF7 breast it was 5.45 µM. Moreover, the TGI stood at 8.38 µM in the experiment with UACC-62 melanoma, 12.4 µM in the experiment with HCT-116 colon and 8.53 µM in the experiment on T-47D breast.
In the case of `COc1cc2c(=O)n(CCCn3ccnc3)c3c4cc5c(cc4ccc3c2cc1OC)OCO5`, the GI50 in the experiment on K-562 leukemia is 0.669 µM; with HT29 colon it was 0.492 µM; in the experiment with OVCAR-8 ovarian it was 1.46 µM; with MALME-3M melanoma it was 2.02 µM; in the experiment on HCC-2998 colon, 13.4 µM; in the experiment on MCF7 breast, 0.0999 µM. In the experiment on T-47D breast, the GI50 is 0.245 µM. Moreover, the TGI with K-562 leukemia is above 100 µM; in the experiment with HT29 colon, above 100 µM; with OVCAR-8 ovarian it was 41.9 µM; in the experiment with MALME-3M melanoma, above 100 µM; in the experiment on HCC-2998 colon, above 100 µM; in the experiment on MCF7 breast, above 100 µM. In the experiment on T-47D breast, the TGI stood at 7.82 µM.
For the molecule `N=C1C(c2nc3ccccc3s2)=C(O)CN1c1ccc(Cl)cc1Cl`, the GI50 with K-562 leukemia was 10.7 µM; in the experiment with HT29 colon it was 16.4 µM; in the experiment with SK-MEL-5 melanoma, 19.2 µM; in the experiment on OVCAR-8 ovarian, 18.2 µM; in the experiment on HCC-2998 colon, 10.4 µM; in the experiment on MCF7 breast, 41.2 µM. The results for the GI50 with UACC-62 melanoma, in the experiment on HCT-116 colon and in the experiment on T-47D breast were 12 µM, 4.95 µM and 44.9 µM, respectively. Besides, the TGI is 64.5 µM in the experiment on K-562 leukemia; above 100 µM with HT29 colon; above 100 µM with SK-MEL-5 melanoma; 47.1 µM in the experiment with OVCAR-8 ovarian; 31.1 µM with HCC-2998 colon; above 100 µM in the experiment on MCF7 breast. Moreover, the results for the TGI with UACC-62 melanoma, in the experiment with HCT-116 colon and in the experiment on T-47D breast were 52.9 µM, 25.6 µM and above 100 µM, respectively.
Consider `COc1ccc(C(=O)C(Br)C(Br)C(=O)O)cc1` (configuration not stated), for which the TGI in the experiment with K-562 leukemia is 82.9 µM; with HT29 colon it was 31 µM; in the experiment with SK-MEL-5 melanoma, above 100 µM; in the experiment on OVCAR-8 ovarian it was above 100 µM; in the experiment with MALME-3M melanoma it was 46.2 µM; in the experiment with MCF7 breast, above 100 µM. Also, the TGI in the experiment with UACC-62 melanoma was above 100 µM; with HCT-116 colon it was 44.9 µM; with T-47D breast, above 100 µM.
As to `ClC1(c2ccccc2)c2ccc(Br)cc2-c2cc(Br)ccc21`, the TGI is above 100 µM in the experiment on K-562 leukemia; 26 µM with HT29 colon; 29.1 µM with SK-MEL-5 melanoma; 35.8 µM in the experiment on OVCAR-8 ovarian; 32.5 µM in the experiment with MALME-3M melanoma; 36.2 µM with HCC-2998 colon. Besides, the figures for the TGI in the experiment on MCF7 breast, with HCT-116 colon and in the experiment with T-47D breast were 36 µM, 28.5 µM and 58.3 µM, respectively.
Turning to `NCCCn1c2c(c3cc4c(cc3c1=O)OCO4)C(=O)c1ccccc1-2`, the GI50 in the experiment on K-562 leukemia is 0.181 µM; in the experiment with HT29 colon, 0.0575 µM; in the experiment with SK-MEL-5 melanoma, 0.215 µM; in the experiment on OVCAR-8 ovarian it was 0.142 µM; in the experiment with HCC-2998 colon, 0.237 µM; with UACC-62 melanoma it was 2.06 µM. Besides, the GI50 in the experiment with T-47D breast is 5.18 µM. The TGI with K-562 leukemia is 0.602 µM; in the experiment on HT29 colon, above 100 µM; in the experiment on SK-MEL-5 melanoma it was 0.656 µM; in the experiment with OVCAR-8 ovarian it was 1.14 µM; with HCC-2998 colon, 0.718 µM; with UACC-62 melanoma it was 5.5 µM. Also, the results for the TGI with HCT-116 colon and with T-47D breast were 0.554 µM and above 100 µM, respectively.
`O=C(CN1CCOCC1)CC(O)(C(F)(F)F)C(F)(F)F`: the total growth inhibition concentration (TGI) with K-562 leukemia, in the experiment on SK-MEL-5 melanoma, in the experiment on OVCAR-8 ovarian, in the experiment with MALME-3M melanoma, with HCC-2998 colon and in the experiment on MCF7 breast was above 100 µM each time. The TGI in the experiment on UACC-62 melanoma, in the experiment with HCT-116 colon and in the experiment on T-47D breast was above 100 µM each time.
As for `NCC1OC(n2cnc3c(=O)[nH]c(N)nc32)C(O)C1O` (configuration not stated), the TGI in the experiment on K-562 leukemia, in the experiment with HT29 colon, in the experiment with SK-MEL-5 melanoma, in the experiment on OVCAR-8 ovarian, in the experiment with MALME-3M melanoma and with MCF7 breast was above 100 µM each time. Also, the TGI with UACC-62 melanoma, in the experiment with HCT-116 colon and with T-47D breast was above 100 µM throughout.
